Results reported in patent US8546389B2 (priority 2010, dated 2013).

Experiments:
1b (BK) NS5bΔ21 = 1b (BK) NS5bΔ21 (Hepatitis C virus genotype 1b (isolate BK) (HCV), UniProt P26663); experiment: HCV polymerase inhibition assay, genotype 1b; type: biochemical, HCV genotype 1b (BK); details: 1b (BK) NS5bΔ21, 33P-GTP incorporation; read-out: 1b polymerase IC50 (range class)
Procedure, shortened: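 NS5bΔ21 (50 nM) in Tris-HCl pH 7.5 with Mg2+/Mn2+, DTT, BSA, 0.5% DMSO, poly(rC) template, GTP at Km and ^33P-GTP; 3-fold compound dilutions. GTP-started reactions stopped with EDTA after 1 h; incorporation read by DEAE filter scintillation counting. IC50 by non-linear regression; 3a enzyme run the same way.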

[1] = tested on: genotype 1b (Con 1) subgenomic replicon cell line; experiment: HCV replicon assay, genotype 1b (Renilla luciferase); type: cell-based, HCV genotype 1b (Con 1); details: Hepatitis C virus; genotype 1b replicon, 72 hours, luciferase; read-out: genotype 1b EC50 (range class)
Procedure, shortened: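 Subgenomic replicon cells expressing Renilla luciferase (1b Con1; 1a and 2a lines by the same method) seeded at 7000 cells/well (5000 for 2a) without G418, exposed to 3-fold compound dilutions for 72 h at 37 °C. Luciferase activity measured; EC50 by non-linear regression.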

Sequence of 1b (BK) NS5bΔ21 (P26663 2420-2989): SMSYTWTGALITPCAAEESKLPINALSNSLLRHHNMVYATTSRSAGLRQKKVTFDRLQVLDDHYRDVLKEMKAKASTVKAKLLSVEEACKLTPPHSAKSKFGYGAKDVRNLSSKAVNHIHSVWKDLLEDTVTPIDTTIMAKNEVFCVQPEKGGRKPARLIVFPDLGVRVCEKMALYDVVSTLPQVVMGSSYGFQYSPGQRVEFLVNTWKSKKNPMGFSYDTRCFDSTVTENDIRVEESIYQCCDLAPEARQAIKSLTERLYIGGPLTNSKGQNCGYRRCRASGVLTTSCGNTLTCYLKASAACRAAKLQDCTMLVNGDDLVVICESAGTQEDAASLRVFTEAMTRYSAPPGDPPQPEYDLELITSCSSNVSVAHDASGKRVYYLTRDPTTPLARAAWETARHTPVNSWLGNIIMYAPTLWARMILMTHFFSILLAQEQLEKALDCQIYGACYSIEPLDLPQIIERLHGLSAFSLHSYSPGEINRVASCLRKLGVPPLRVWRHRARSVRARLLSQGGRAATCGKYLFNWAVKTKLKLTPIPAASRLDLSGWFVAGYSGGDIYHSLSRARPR

SMILES | IC50 (1b (BK) NS5bΔ21) [µM] | EC50 [1] [µM]
CNC(=O)c1c2cc(C3CC3)c(N(CCCO)S(C)(=O)=O)cc2nn1-c1ccc(OC)cc1 [Compound 55, 5-cyclopropyl-6-[(3-hydroxypropyl)(methylsulfonyl)amino]-2-(4-methoxyphenyl)-N-methyl-2H-indazole-3-carboxamide] | 1 to 9.99 | 1 to 9.99
CNC(=O)c1c2cc(C3CC3)c(N(CCCNCc3cccnc3)S(C)(=O)=O)cc2nn1-c1ccc(Br)cc1 [Compound 211] | < 0.99 | 1 to 9.99
CNC(=O)c1c2cc(C3CC3)c(N(CCCNC(C)=O)S(C)(=O)=O)cc2nn1-c1ccc(NCC(C)C)cc1 [Compound 60, 6-{[3-(acetylamino)propyl](methylsulfonyl)amino}-5-cyclopropyl-N-methyl-2-(4-[(2-methylpropyl)amino]phenyl)-2H-indazole-3-carboxamide] | 1 to 9.99 | 1 to 9.99
CCN(c1cc2nn(-c3ccc(Br)cc3)c(C(=O)NC)c2cc1C1CC1)S(C)(=O)=O [Compound 20] | < 0.99 | < 0.99
CNC(=O)c1c2cc(C3CC3)c(N(CCCN3C(=O)[C@H]4CCCC[C@H]4C3=O)S(C)(=O)=O)cc2nn1-c1ccc(Br)cc1 [Compound 209] | < 0.99 | < 0.99
CNC(=O)c1c2cc(C3CC3)c(N(CCO)S(C)(=O)=O)cc2nn1-c1ccc(Nc2ccc(F)cc2)cc1 [Compound 19] | < 0.99 | < 0.99
CCCc1cc2c(C(=O)NC)n(-c3ccc(F)cc3)nc2cc1N(CC)S(C)(=O)=O [Compound 145] | 1 to 9.99 | 1 to 9.99
CNC(=O)c1c2cc(C3CC3)c(N(CCCS(C)(=O)=O)S(C)(=O)=O)cc2nn1-c1ccc(Br)cc1 [Compound 100, 2-(4-bromophenyl)-5-cyclopropyl-N-methyl-6-[methylsulfonyl(3-methylsulfonylpropyl)amino]-2H-indazole-3-carboxamide] | < 0.99 | < 0.99
CCN(C(=O)c1ccco1)c1cc2nn(-c3ccc(Br)cc3)c(C(=O)NC)c2cc1C1CC1 [Compound 221] | 10 to 50 | 1 to 9.99
CNC(=O)c1c2cc(C3CC3)c(N(CCO)S(C)(=O)=O)cc2nn1-c1ccc(Oc2ccccc2)cc1 [Compound 35] | 1 to 9.99 | < 0.99
CCN(c1cc2nn(-c3ccc(F)cc3)c(C(=O)NC)c2cc1OC(F)F)S(C)(=O)=O [Compound 78, 5-(Difluoromethoxy)-6-[ethyl(methylsulfonyl)amino]-2-(4-fluorophenyl)-N-methyl-2H-indazole-3-carboxamide] | 10 to 50 | 1 to 9.99
CCN(c1cc2nn(-c3ccc(F)cc3)c(C(=O)NC)c2cc1C)S(C)(=O)=O [Compound 139] | 1 to 9.99 | 10 to 50
CNC(=O)c1c2cc(C3CC3)c(N(CCCO)S(C)(=O)=O)cc2nn1-c1ccc(Br)c(F)c1 [Compound 223] | < 0.99 | < 0.99
CNC(=O)c1c2cc(C3CC3)c(NS(C)(=O)=O)cc2nn1-c1ccc(Br)cc1 [Compound 1, 2-(4-bromophenyl)-5-cyclopropyl-N-methyl-6-[(methylsulfonyl)amino]-2H-indazole-3-carboxamide] | 10 to 50 | 1 to 9.99
CCN(c1cc2nn(-c3ccc(F)cc3)c(C(=O)NC)c2cc1/C=C\CO)S(C)(=O)=O [Compound 76, 6-[ethyl(methylsulfonyl)amino]-2-(4-fluorophenyl)-5[(1Z)-3-hydroxyprop-1-en-1-yl]-N-methyl-2H-indazole-3-carboxamide] | 10 to 50 | 1 to 9.99
CNC(=O)c1c2cc(C3CC3)c(N(CCCNC(=O)c3ccn(C)c(=O)c3)S(C)(=O)=O)cc2nn1-c1ccc(Br)cc1 [Compound 219] | < 0.99 | 1 to 9.99
CNC(=O)c1c2cc(C3CC3)c(N(CCCNC(=O)[C@@H]3CC(=O)N(C)C3)S(C)(=O)=O)cc2nn1-c1ccc(Br)cc1 (racemic) [Compound 182] | < 0.99 | 1 to 9.99
CCN(c1cc2nn(-c3ccc(F)cc3)c(C(=O)NC)c2cc1Br)S(C)(=O)=O [Compound 132] | 1 to 9.99 | 10 to 50
